From US20240383955A1, “MODIFIED ANTIMICROBIAL PEPTIDES” (priority 2021, published 2024)
Values after ≈ are worked out from the molar mass of the structure shown. Read-outs that look alike come from different tables or passages of the source. Square brackets hold non-standard residues; d marks the D form. Peptide text beside a SMILES is read from it. Dab = NCC[C@H](N)C(=O)O

How the values were obtained:
[1] = tested on: C. parapsilosis; assay: MIC by CLSI M27/M38 methodology; assay type: cell-based, Candida parapsilosis; details: C. parapsilosis isolate ATCC 22019; Table 8
Protocol: (§1) Testing for antifungal activity used half-strength potato dextrose broth for peptides and RPMI for comparator antifungals fluconazole and voriconazole. CLSI M27 and M38 methodologies used for to measure MICs. Minimal Inhibitory Concentration (MIC) is the concentration of the compound, protein, or peptide at which there is no significant growth of the microorganism relative to the growth of the microorganism in growth medium lacking the compound, protein, or peptide.
(§2) […] The concentration range for peptides in potato dextrose broth was 0.06-2 mcg/ml, the concentration range for fluconazole was 0.125-64 mcg/ml, and the concentration range for voriconazole was 0.03-16 mcg/ml. MICs were determined at 24-72 hours.

[2] = tested on: Coccidioides sp.; assay type: cell-based; details: Table 8
[3] = tested on: B. cinerea, F. graminearum, F. oxysporum and P. capsici; assay type: cell-based; details: in vitro, low cationic conditions; for antifungal activity relative to the wild-type GMA4C_AC control: against B. cinerea, F. graminearum, F. oxysporum and P. capsici
[4] = tested on: Fusarium (F. oxysporum); assay: MIC by CLSI M27/M38 methodology; assay type: cell-based; details: Table 8
Protocol: as §1, §2

[5] = tested on: Fusarium (F. solani); assay: MIC by CLSI M27/M38 methodology; assay type: cell-based; details: Fusarium isolate F4 (F. solani); Table 8
Protocol: as §1, §2

[6] = tested on: Candida auris; assay: MIC by CLSI M27/M38 methodology; assay type: cell-based; details: Table 8
Protocol: as §1, §2

[7] = tested on: Aspergillus fumigatus; assay: MIC by CLSI M27/M38 methodology; assay type: cell-based; details: Table 8
Protocol: as §1, §2

[8] = tested on: Candida albicans; assay: MIC by CLSI M27/M38 methodology; assay type: cell-based; details: Table 8
Protocol: as §1, §2

[9] = tested on: B. cinerea; assay: In vitro antifungal activity (MIC) in SFM culture media, with or without added salts; details: B. cinerea
[10] = Coccidioides sp. isolate Cocci1
[11] = Coccidioides sp. isolate Cocci2
[12] = Coccidioides sp. isolate DI17-143
[13] = Fusarium isolate F1 (F. oxysporum)
[14] = Fusarium isolate F2 (F. oxysporum)
[15] = Aspergillus fumigatus isolate AF293
[16] = Aspergillus fumigatus isolate DI15-106
[17] = Aspergillus fumigatus isolate DI15-116
[18] = Candida albicans isolate ATCC 90028
[19] = Candida albicans isolate SC5314

Structure (SMILES)	MIC, 100% [1]	MIC, 100% [2, 10]	MIC, 100% [2, 11]	MIC, 100% [2, 12]	antifungal activity relative to the wild-type GMA4C_AC control [3]	MIC, 100% [4, 13]	MIC, 100% [4, 14]	MIC, 100% [5]	MIC, 100% ([6]; Candida auris isolate DI17-46)	MIC, 100% ([6]; Candida auris isolate DI17-47)	MIC, 100% ([6]; Candida auris isolate DI17-48)	MIC, 100% [7, 15]	MIC, 100% [7, 16]	MIC, 100% [7, 17]	MIC, 100% [8, 18]	MIC, 100% ([8]; Candida albicans isolate CA3)	MIC, 100% [8, 19]	reduction in antifungal activity relative to the wild-type GMA4C_AC control ([3]; against B. cinerea and F. graminearum)	fungal growth inhibition at 6 μM ([9]; in presence of 2 mM CaCl2, peptide 6 μM)	potency of antifungal activity relative to GMA4C_AC ([9]; in presence of 100 mM NaCl or 100 mM KCl)
NCC[C@H](NC(=O)CNC(=O)[C@@H](N)Cc1ccccc1)C(=O)N[C@@H](CS)C(=O)N[C@@H](CCN)C(=O)NCC(=O)N[C@@H](Cc1ccccc1)C(=O)N[C@@H](CCN)C(=O)N[C@@H](CCN)C(=O)N[C@@H](CCN)C(=O)N[C@@H](CS)C(=O)N[C@@H](Cc1ccccc1)C(=O)N[C@@H](CS)C(=O)N[C@@H](Cc1c[nH]c2ccccc12)C(=O)N[C@@H](CCN)C(=O)N[C@@H](Cc1c[nH]c2ccccc12)C(=O)N[C@@H](CS)C(N)=O [GMA4C_V5A, FG(Dab)C(Dab)GF(Dab)(Dab)(Dab)CFCW(Dab)WC-NH2] (H-FG[Dab]C[Dab]GF[Dab][Dab][Dab]CFCW[Dab]WC-NH2; N-terminus assumed)	8 µg/mL (≈ 4.08 µM)	2 µg/mL (≈ 1.02 µM)	16 µg/mL (≈ 8.17 µM)	16 µg/mL (≈ 8.17 µM)	equivalent to the wild-type GMA4C_AC control	8 µg/mL (≈ 4.08 µM)	16 µg/mL (≈ 8.17 µM)	8 µg/mL (≈ 4.08 µM)	16 µg/mL (≈ 8.17 µM)	16 µg/mL (≈ 8.17 µM)	16 µg/mL (≈ 8.17 µM)	32 µg/mL (≈ 16.3 µM)	>32 µg/mL	>32 µg/mL	16 µg/mL (≈ 8.17 µM)	8 µg/mL (≈ 4.08 µM)	16 µg/mL (≈ 8.17 µM)			
CC[C@H](C)[C@H](NC(=O)[C@H](CCCNC(=N)N)NC(=O)[C@@H](NC(=O)[C@H](CS)NC(=O)[C@H](Cc1ccccc1)NC(=O)[C@H](CS)NC(=O)[C@H](CCCNC(=N)N)NC(=O)[C@H](CCCNC(=N)N)NC(=O)[C@H](CCCNC(=N)N)NC(=O)[C@H](Cc1ccccc1)NC(=O)CNC(=O)[C@H](CCCNC(=N)N)NC(=O)[C@H](CS)NC(=O)[C@H](CCCNC(=N)N)NC(=O)CNC(=O)CN)[C@@H](C)O)C(=O)N[C@@H](CS)C(N)=O [GMA4C_V2A] (H-GGRCRGFRRRCFCTRIC-NH2; N-terminus assumed)	8 µg/mL (≈ 3.91 µM)	8 µg/mL (≈ 3.91 µM)	16 µg/mL (≈ 7.82 µM)	16 µg/mL (≈ 7.82 µM)		8 µg/mL (≈ 3.91 µM)	16 µg/mL (≈ 7.82 µM)	8 µg/mL (≈ 3.91 µM)	16 µg/mL (≈ 7.82 µM)	16 µg/mL (≈ 7.82 µM)	16 µg/mL (≈ 7.82 µM)	32 µg/mL (≈ 15.6 µM)	>32 µg/mL	>32 µg/mL	16 µg/mL (≈ 7.82 µM)	16 µg/mL (≈ 7.82 µM)	16 µg/mL (≈ 7.82 µM)	two-fold reduction		
N=C(N)NCCC[C@H](NC(=O)CNC(=O)[C@@H](N)Cc1ccccc1)C(=O)N[C@@H](CS)C(=O)N[C@@H](CCCNC(=N)N)C(=O)NCC(=O)N[C@@H](Cc1ccccc1)C(=O)N[C@@H](CCCNC(=N)N)C(=O)N[C@@H](CCCNC(=N)N)C(=O)N[C@@H](CCCNC(=N)N)C(=O)N[C@@H](CS)C(=O)N[C@@H](Cc1ccccc1)C(=O)N[C@@H](CS)C(=O)N[C@@H](Cc1c[nH]c2ccccc12)C(=O)N[C@@H](CCCNC(=N)N)C(=O)N[C@@H](Cc1c[nH]c2ccccc12)C(=O)N[C@@H](CS)C(N)=O [GMA4C_V4A] (H-FGRCRGFRRRCFCWRWC-NH2; N-terminus assumed)	8 µg/mL (≈ 3.49 µM)	4 µg/mL (≈ 1.74 µM)	16 µg/mL (≈ 6.97 µM)	16 µg/mL (≈ 6.97 µM)	equivalent to the wild-type GMA4C_AC control	8 µg/mL (≈ 3.49 µM)	8 µg/mL (≈ 3.49 µM)	8 µg/mL (≈ 3.49 µM)	8 µg/mL (≈ 3.49 µM)	8 µg/mL (≈ 3.49 µM)	8 µg/mL (≈ 3.49 µM)	16 µg/mL (≈ 6.97 µM)	16 µg/mL (≈ 6.97 µM)	32 µg/mL (≈ 13.9 µM)	8 µg/mL (≈ 3.49 µM)	8 µg/mL (≈ 3.49 µM)	8 µg/mL (≈ 3.49 µM)		inhibit fungal growth	2 fold
